Measurements reported in patent publication US7799821B2, “Therapeutic compounds” (Allergan, Inc., priority 2004, dated 2010).
Values belong to the molecule of their own block, whether it stands above or below them.

How the values were obtained:
Beagle dogs [1] = experiment: Intraocular pressure (IOP) in dogs, pneumatonometry; format: in vivo; conditions: topical
Procedure: (§1) Intraocular pressure studies in dogs involved pneumatonometry performed in conscious, Beagle dogs of both sexes (10-15 kg). The animals remained conscious throughout the study and were gently restrained by hand. Drugs were administered topically to one eye as a 25 μL volume drop, the other eye received 25 μL vehicle (0.1% (w/v) polysorbate 80; 10 mM TRIS) as a control. Proparacaine (0.1% w/v) was used for corneal anesthesia during tonometry. Intraocular pressure was determined just before drug administration and at 2, 4 and 6 hr thereafter on each day of the 5 day study. Drug was administered immediately after the first IOP reading.
as §1, with “(0.1%” for “(0.1% (w/v)”, “80:10” for “80; 10”, “(0.1%)” for “(0.1% w/v)”

Beagle dogs [2] = experiment: Ocular surface hyperemia, dogs; format: in vivo; set-up: key: 0.5: <1 trace; 1 mild; 2: moderate; 3: severe; conditions: score
Procedure: (§2) Ocular surface hyperemia was visually assessed and scored according to a system typically used clinically.
(§3) Ocular surface hyperemia was evaluated at the same time points as intraocular pressure measurement. It should be noted that untreated dog eyes frequently have a pink/red tone. Thus, values of trace or even mild are not necessarily out of the normal range. Similar tests were used to determine ocular surface hyperemia on monkeys and rabbits.

rabbits = experiment: Ocular surface hyperemia, rabbits; format: in vivo; conditions: score
Procedure: as §2, §3

monkeys = experiment: Intraocular pressure (IOP) in monkeys; format: in vivo
hFP = target: T1, hFP (Homo sapiens, UniProt P43088); experiment: FLIPR calcium signal, hFP; format: cell-based; conditions: Table 3, third part
T1 construct: expressed in transfected cells; host or cells: HEK-293(EBNA)
T1 sequence (P43088 whole entry): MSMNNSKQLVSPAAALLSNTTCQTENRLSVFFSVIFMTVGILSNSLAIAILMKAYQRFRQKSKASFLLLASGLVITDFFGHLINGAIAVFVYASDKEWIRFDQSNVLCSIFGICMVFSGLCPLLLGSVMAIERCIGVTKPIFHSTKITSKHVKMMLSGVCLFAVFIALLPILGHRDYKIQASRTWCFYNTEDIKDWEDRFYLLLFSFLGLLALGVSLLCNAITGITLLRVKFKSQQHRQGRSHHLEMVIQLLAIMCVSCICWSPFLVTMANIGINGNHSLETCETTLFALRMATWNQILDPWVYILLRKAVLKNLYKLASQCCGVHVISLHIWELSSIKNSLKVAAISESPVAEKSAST
Procedure: (§4) HEK-293(EBNA) cells, stably expressing one type or subtype of recombinant human prostaglandin receptors (prostaglandin receptors expressed: hDP/Gqs5; hEP1; hEP2/Gqs5; hEP3A/Gqi5; hEP4/Gqs5; hFP; hIP; hTP), were cultured in 100 mm culture dishes in high-glucose DMEM medium containing 10% fetal bovine serum, 2 mM 1-glutamine, 250 μg/ml geneticin (G418) and 200 μg/ml hygromycin B as selection markers, and 100 units/ml penicillin G, 100 μg/ml streptomycin and 0.25 μg/ml amphotericin B. • (b) Calcium Signal Studies on the FLIPR™
(§5) Cells were seeded at a density of 5×10^4 cells per well in Biocoat® Poly-D-lysine-coated black-wall, clear-bottom 96-well plates (Becton-Dickinson) and allowed to attach overnight in an incubator at 37° C. Cells were then washed two times with HBSS-HEPES buffer (Hanks Balanced Salt Solution without bicarbonate and phenol red, 20 mM HEPES, pH 7.4) using a Denley Cellwash plate washer (Labsystems). After 45 minutes of dye-loading in the dark, using the calcium-sensitive dye Fluo-4 AM at a final concentration of 2 μM, plates were washed four times with HBSS-HEPES buffer to remove excess dye leaving 100 μl in each well. Plates were re-equilibrated to 37° C. for a few minutes.
(§6) Cells were excited with an Argon laser at 488 nm, and emission was measured through a 510-570 nm bandwidth emission filter (FLIPR™, Molecular Devices, Sunnyvale, Calif.). Drug solution was added in a 50 μl volume to each well to give the desired final concentration. The peak increase in fluorescence intensity was recorded for each well. On each plate, four wells each served as negative (HBSS-HEPES buffer) and positive controls (standard agonists: BW245C (hDP); PGE2 (hEP1; hEP2/Gqs5; hEP3A/Gqi5; hEP4/Gqs5); PGF2α (hFP); carbacyclin (hIP); U-46619 (hTP), depending on receptor). The peak fluorescence change in each drug-containing well was then expressed relative to the controls.
Compounds were tested in a high-throughput (HTS) or concentration-response (CoRe) format. […]

hEP1 = target: T2, hEP1 (Homo sapiens, UniProt P34995); experiment: FLIPR calcium signal, hEP1; format: cell-based; conditions: Table 3, third part
T2 construct: expressed in transfected cells; host or cells: HEK-293(EBNA)
T2 sequence (P34995 1-402): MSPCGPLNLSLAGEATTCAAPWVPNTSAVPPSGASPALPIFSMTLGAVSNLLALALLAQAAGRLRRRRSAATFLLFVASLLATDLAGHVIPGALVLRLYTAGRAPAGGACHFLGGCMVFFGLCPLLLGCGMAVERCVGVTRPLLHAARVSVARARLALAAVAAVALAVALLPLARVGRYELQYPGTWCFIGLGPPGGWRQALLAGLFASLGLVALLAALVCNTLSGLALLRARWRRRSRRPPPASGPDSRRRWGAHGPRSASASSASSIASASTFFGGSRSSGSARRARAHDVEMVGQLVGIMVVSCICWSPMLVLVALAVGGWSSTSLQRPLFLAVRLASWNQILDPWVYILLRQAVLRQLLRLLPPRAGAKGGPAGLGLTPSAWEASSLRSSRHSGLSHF
Procedure: as §4, §5, §6
(§7) Compounds were tested in a high-throughput (HTS) or concentration-response (CoRe) format. In the HTS format, forty-four compounds per plate were examined in duplicates at a concentration of 10^−5 M. To generate concentration-response curves, four compounds per plate were tested in duplicates in a concentration range between 10^−5 and 10^−11 M. The duplicate values were averaged. In either, HTS or CoRe format each compound was tested on at least 3 separate plates using cells from different passages to give an n≧3.

hEP4/Gqs5 = target: T3, hEP4/Gqs5 (Homo sapiens, UniProt P35408); experiment: FLIPR calcium signal, hEP4; format: cell-based; conditions: Table 3, third part; read-out: Ca2+ Signal-EC50 (nM) EP4
T3 construct: expressed in transfected cells; host or cells: HEK-293(EBNA)
T3 sequence (P35408 whole entry): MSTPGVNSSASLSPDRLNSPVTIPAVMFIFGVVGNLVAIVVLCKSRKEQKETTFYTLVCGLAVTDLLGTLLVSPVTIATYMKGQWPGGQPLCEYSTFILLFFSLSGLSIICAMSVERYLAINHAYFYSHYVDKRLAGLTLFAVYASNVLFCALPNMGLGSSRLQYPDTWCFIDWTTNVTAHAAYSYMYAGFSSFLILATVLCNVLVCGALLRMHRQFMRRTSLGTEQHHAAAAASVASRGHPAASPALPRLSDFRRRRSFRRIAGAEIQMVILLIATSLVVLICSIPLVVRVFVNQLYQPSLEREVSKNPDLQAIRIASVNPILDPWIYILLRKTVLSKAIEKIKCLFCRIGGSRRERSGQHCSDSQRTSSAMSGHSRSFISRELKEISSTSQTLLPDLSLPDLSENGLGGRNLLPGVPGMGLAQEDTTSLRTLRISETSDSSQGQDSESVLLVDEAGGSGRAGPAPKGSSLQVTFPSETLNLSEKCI
In short: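 HEK-293(EBNA) cells stably expressing each human prostanoid receptor (EP2 and EP3A coupled via Gqs5/Gqi5 chimeras) were loaded with Fluo-4 AM, and peak calcium fluorescence was measured on FLIPR at 37° C. Compounds were tested at 10^−5 M or from 10^−11 to 10^−5 M in duplicate, n≥3, with response expressed relative to buffer and standard agonist controls.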

hTP = target: T4, hTP (Homo sapiens, UniProt P21731); experiment: FLIPR calcium signal, hTP; format: cell-based; conditions: Table 3, third part
T4 construct: expressed in transfected cells; host or cells: HEK-293(EBNA)
T4 sequence (P21731 1-343): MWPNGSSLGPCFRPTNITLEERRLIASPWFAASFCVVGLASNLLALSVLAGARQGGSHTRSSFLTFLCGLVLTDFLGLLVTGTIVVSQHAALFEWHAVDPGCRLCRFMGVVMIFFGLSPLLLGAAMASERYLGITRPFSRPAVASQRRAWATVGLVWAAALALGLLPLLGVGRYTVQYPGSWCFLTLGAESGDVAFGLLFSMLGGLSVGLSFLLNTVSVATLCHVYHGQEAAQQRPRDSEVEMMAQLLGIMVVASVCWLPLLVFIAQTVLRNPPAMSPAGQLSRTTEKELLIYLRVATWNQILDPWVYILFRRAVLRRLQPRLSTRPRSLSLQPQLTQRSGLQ
Procedure: as §4, §5, §6, §7

hIP = target: T5, hIP (Homo sapiens, UniProt P43119); experiment: FLIPR calcium signal, hIP; format: cell-based; conditions: Table 3, third part
T5 construct: expressed in transfected cells; host or cells: HEK-293(EBNA)
T5 sequence (P43119 whole entry): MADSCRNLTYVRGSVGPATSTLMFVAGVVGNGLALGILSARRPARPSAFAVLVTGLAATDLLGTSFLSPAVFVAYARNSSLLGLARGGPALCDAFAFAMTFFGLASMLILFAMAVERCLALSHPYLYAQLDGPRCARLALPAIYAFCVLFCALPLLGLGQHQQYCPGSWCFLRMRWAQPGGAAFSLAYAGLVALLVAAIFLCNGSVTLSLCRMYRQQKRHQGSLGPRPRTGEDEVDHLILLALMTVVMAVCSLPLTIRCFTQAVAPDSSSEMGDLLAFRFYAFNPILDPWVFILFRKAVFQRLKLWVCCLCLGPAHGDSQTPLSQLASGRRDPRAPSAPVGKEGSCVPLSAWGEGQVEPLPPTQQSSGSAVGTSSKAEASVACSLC
Procedure: as §4, §5, §6, §7

DOG Max. hyperemia (Beagle dogs [2]; Conc. 0.10% (0.1%) g/100 mL): 0.7 | RABBIT Max. hyperemia (rabbits; Conc. 0.10% (0.1%) g/100 mL): 0.1
SMILES: CC(C)OC(=O)CCC/C=C\C[C@@H]1[C@@H](c2ccc(C(C)(C)CO)cc2)[C@H](O)C[C@H]1Cl
DOG Max. ΔIOP (mm Hg) (Beagle dogs [1]; Conc. 0.10% (0.1%) g/100 mL): −5 mm Hg | MONKEY Max. ΔIOP (mm Hg) (monkeys; Conc. 0.10% (0.1%) g/100 mL): 6 mm Hg

DOG Max. hyperemia (Beagle dogs [2]; Conc. 0.10% (0.1%) g/100 mL): 1 | RABBIT Max. hyperemia (rabbits; Conc. 0.10% (0.1%) g/100 mL): 0
SMILES: O=C(O)CCC/C=C\C[C@@H]1[C@@H](c2ccc(C(O)C3CCCCC3)cc2)[C@H](O)C[C@H]1Cl (stereo partly drawn) [drawing 239]
DOG Max. ΔIOP (mm Hg) (Beagle dogs [1]; Conc. 0.10% (0.1%) g/100 mL): −4 mm Hg

DOG Max. hyperemia (Beagle dogs [2]; Conc. 0.10% (0.1%) g/100 mL): 0.6 | RABBIT Max. hyperemia (rabbits; Conc. 0.10% (0.1%) g/100 mL): 0.0
SMILES: CCCCCC(O)c1ccc([C@@H]2[C@@H](C/C=C\CCCC(=O)OC(C)C)[C@H](Cl)C[C@H]2Cl)cc1 (stereo partly drawn)
DOG Max. ΔIOP (mm Hg) (Beagle dogs [1]; Conc. 0.10% (0.1%) g/100 mL): −12 mm Hg | MONKEY Max. ΔIOP (mm Hg) (monkeys; Conc. 0.10% (0.1%) g/100 mL): 19 mm Hg

DOG Max. hyperemia (Beagle dogs [2]; Conc. 0.01% g/100 mL): 0.6
SMILES: CC(C)OC(=O)CCC/C=C\C[C@@H]1[C@@H](c2ccc(C(O)C3CCCCC3)cc2)[C@H](O)C[C@H]1Cl (stereo partly drawn)
DOG Max. ΔIOP (mm Hg) (Beagle dogs [1]; Conc. 0.01% g/100 mL): −4 mm Hg | MONKEY Max. ΔIOP (mm Hg) (monkeys; Conc. 0.01% g/100 mL): 5 mm Hg

DOG Max. hyperemia (Beagle dogs [2]; Conc. 0.30% g/100 mL): 1
SMILES: O=C(O)CCC/C=C\C[C@@H]1[C@@H](c2ccc3c(c2)CCC3O)[C@H](O)C[C@H]1Cl (stereo partly drawn)
DOG Max. ΔIOP (mm Hg) (Beagle dogs [1]; Conc. 0.30% g/100 mL): −7 mm Hg | MONKEY Max. ΔIOP (mm Hg) (monkeys; Conc. 0.30% g/100 mL): 7 mm Hg

DOG Max. hyperemia (Beagle dogs [2]; Conc. 0.10% (0.1%) g/100 mL): 0.9 | RABBIT Max. hyperemia (rabbits; Conc. 0.10% (0.1%) g/100 mL): 0
SMILES: CC(C)(C)c1ccc([C@@H]2[C@@H](CCCCCCC(=O)O)[C@H](Cl)C[C@H]2O)cc1 [drawing 237]
DOG Max. ΔIOP (mm Hg) (Beagle dogs [1]; Conc. 0.10% (0.1%) g/100 mL): −4 mm Hg

RABBIT Max. hyperemia (rabbits; Conc. 0.01% g/100 mL): 0.1
SMILES: CC(C)OC(=O)CCCCCC[C@@H]1[C@@H](c2ccc(C(C)(C)C)cc2)[C@H](O)C[C@H]1Cl
MONKEY Max. ΔIOP (mm Hg) (monkeys; Conc. 0.01% g/100 mL): 8 mm Hg

Ca2+ Signal-EC50 (nM) FP (hFP): not active | Ca2+ Signal-EC50 (nM) EP1 (hEP1): not active | EC50 (hEP4/Gqs5): 10000 nM | Ca2+ Signal-EC50 (nM) TP (hTP): not active | Ca2+ Signal-EC50 (nM) IP (hIP): not active
SMILES: CCCCCC(O)c1ccc([C@@H]2[C@@H](C/C=C\CCCC(=O)O)[C@H](Cl)C[C@@H]2Cl)cc1 (stereo partly drawn)
